# Data reported in article PMC3154276, “The Effect of the Potential PhoQ Histidine Kinase Inhibitors on Shigella flexneri Virulence” (PLoS ONE, 2011).
# Tests used:
# SF-PhoQc = target: T1, SF-PhoQc (Shigella flexneri, UniProt Q83RR1); test: Pyrophosphate Reagent coupled enzymatic activity assay of SF-PhoQc; assay type: biochemical, S. flexneri 2a 301; settings: for decrease of SF-PhoQc catalyzed consumption of ATP: Pyrophosphate Reagent
# T1 construct: The amplified DNA segment encodes PhoQ HK amino acids 251–486; made in house; host or cells: E. coli JM109
# Description: The enzymatic activity of SF-PhoQc was determined using the Pyrophosphate Reagent, in which ATP initiates the reaction and ADP generated by ATP is accompanied by the reduction of NADH to NAD^+. The rate of NADH reduction to NAD^+ is detected by a change in absorbance readings at 340 nm. The activity of SF-PhoQc is measured by detecting a decrease in NADH at A340. Recombinant SF-PhoQc (25 µmol/L) was added to initiate the reaction, and the A340 value was recorded by SoftMax vision 4.8 each minute for 30 minutes. The A340 value reduced from 1.47 to 0.65 in the presence of SF-PhoQc (Figure 2).
# Figure 2 The activity of recombinant SF-PhoQc. The activity of SF-PhoQc from the Pyrophosphate Reagent was shown. All assays were conducted in a 96-well microplate spectrophotometer. The assay mixture (total volume was 200 µl) contained 25 mmol/L KCl, 2.5 mmol/L MgCl2, 2 mmol/L ATP, 1 mmol/L phosphoendpyruvate, 0.35 mmol/L NADH, 1.5 U/ml PK, 1.25 U/ml LDH and 50 mmol/L Tris-Cl (pH 8.0). Protein SF-PhoQc was added to a final concentration of 25 µmol/L to start the reaction. After SF-PhoQc was added, the A340 value was recorded by SoftMax vision 4.8 every minute for 30 minutes.
# The enzymatic activity of SF-PhoQc was measured using both a Pyrophosphate Reagent (Sigma-Aldrich, MO, USA) and a Luminescent Kinase Assay (Promega, WI, USA). The Pyrophosphate Reagent was performed to confirm the inhibitory activities of the effective potential PhoQ inhibitors in the bioinformatics approach. All reactions were carried out in solid black, flat-bottomed 96-well plates. The Pyrophosphate Reagent was performed at 28°C by monitoring the decrease of NADH by a decrease in absorbance readings at 340 nm (ε340 = 6180 M^−1·cm^−1) in the presence of ATP. The final reaction mixture for the Pyrophosphate Reagent contained 25 µmol/L purified SF-PhoQc, 25 mmol/L KCl, 2.5 mmol/L MgCl2, 2 mmol/L ATP, 1 mmol/L phosphoendpyruvate, 0.35 mmol/L NADH, 1.5 U/ml PK, 1.25 U/ml LDH and 50 mmol/L Tris-Cl (pH 8.0). The enzyme activity was determined in the presence of various concentrations of potential PhoQ inhibitors […] to investigate dose-dependent inhibition effects. The A340 value was recorded by SoftMax vision 4.8 every minute, for 30 minutes. The rate of SF-PhoQc enzymatic activity inhibition by a compound was calculated by the following formula: [drawing 1]
# Rp (Ratio of Phosphorylation) was defined as the ratio of the decrease activity of SF-PhoQc treated with compound vs the activity of SF-PhoQc treated without compounds. Rp was stand for the percentage of decrease activity of SF-PhoQc.
# IC50(the concentration of inhibition of 50%)values of potential PhoQ inhibitors were obtained by fitting the data to a sigmoid dose–response equation using Origin 7.0 software (OriginLab, Northampton, USA).
# S. flexneri Sf9380 = test: Gentamicin protection assay, intracellular growth and spreading to adjacent cell of Sf9380; assay type: cell-based; settings: for intracellular growth and spreading to adjacent cell of Sf9380 (bacteria recovered / inoculated): further incubated 290 min, untreated Sf9380 0.12
# Description: The growth curve of Sf9380 treated with or without potential PhoQ inhibitors at concentration 200 µmol/L were tested. […] The gentamicin protection assay was used as a cellular model to evaluate the inhibitory effect of the four potential PhoQ inhibitors. The bacteria were treated with each of the four potential PhoQ inhibitors in a serial dilution and grown for 8 hours. Next, the bacteria were inoculated and incubated with HeLa cells for 60 min prior to the addition of gentamicin to kill extracellular bacteria. For testing intracellular growth and spreading to adjacent cell, cells were further incubated for 290 min [9]. The results of the assays were expressed as the number of bacteria recovered from gentamicin-treated cells divided by the number of inoculated bacteria added to the cell. After lysates of HeLa cells were plated, the number of CFU that formed on LB agar were counted.
# Figure 6 The effects of potential PhoQ inhibitors on virulence of Shigella. […] The bacteria pre-treated with potential PhoQ inhibitor were added to HeLa cells at a multiplicity of infection of 100. Then gentamicin was added to kill extracellular bacteria and cell lysates were plated onto LB plates, and the colonies were counted. The results of the assays were expressed as the number of bacteria recovered from gentamicin-treated cells divided by the number of inoculated bacteria added to the cell. S. flexneri Sf9380 (treated without DMSO), a clinical strain with strong virulence, served as the positive control for the cell invasion assay; E. coli ATCC 25922 (treated without DMSO), an avirulent strain, served as the negative control for the cell invasion assay; bacteria treated with 0.1% DMSO (the solvent of the potential PhoQ inhibitor) also served as a control for the cell invasion assay. Values are means ± standard deviations from 6 independent wells. *p<0.01 vs. Sf9380. (A) The effects of potential PhoQ inhibitors on cell invasion of S. flexneri Sf9380 (B) The effects of potential PhoQ inhibitors on intracellular growth S. flexneri Sf9380. (C) The effects of potential PhoQ inhibitors on cell invasion of S. flexneri 2a 301 phoQ/phoP knock-out mutant.
# Bacterial ability to invade HeLa cells was tested with a gentamicin protection assay. HeLa cells were grown in six-well tissue culture plates to semi-confluent monolayers (DMEM, 10% FCS, 5% CO2). Sf9380 or Sf301 ΔphoQ/phoP was treated with potential PhoQ inhibitors for 8 hours in LB at 37°C (final concentrations of 100,50,25,12.5 or 6.25 µmol/L) prior to infection. The bacteria pre-treated with potential PhoQ inhibitor without washing, were added to semi-confluent HeLa cells at a multiplicity of infection of 100, at the same time the bacteria were diluted and plated onto LB agar plates. The CFUs were counted as initial bacterial number before added into HeLa cells. Then the plates were centrifuged at 900×g for 5 minutes. After incubating at 37°C for 60 minutes (For testing intracellular growth and spreading to adjacent cell, cells were further incubated for 290 min [9].), the cells were washed three times with PBS, and gentamicin was added to the medium to a final concentration of 10 µg/ml for 20 minutes at 37°C. After the incubation, the HeLa cells in each well were lysed in 1 ml of PBS containing 0.1% Triton X-100 for 10 minutes at room temperature. The lysates were diluted and plated onto LB agar plates in triplicate. Colonies grown on LB plates were counted. The results of the assays were expressed as the number of bacteria recovered from gentamicin-treated cells divided by the number of inoculated bacteria added to the cell. The cells were inoculated with untreated Sf9380 or Sf301 ΔphoQ/phoP (treated without DMSO) as a positive control and E. coli ATCC 25922, an avirulent strain treated without DMSO, as a negative control. […]
# T1 sequence (Q83RR1 251-486): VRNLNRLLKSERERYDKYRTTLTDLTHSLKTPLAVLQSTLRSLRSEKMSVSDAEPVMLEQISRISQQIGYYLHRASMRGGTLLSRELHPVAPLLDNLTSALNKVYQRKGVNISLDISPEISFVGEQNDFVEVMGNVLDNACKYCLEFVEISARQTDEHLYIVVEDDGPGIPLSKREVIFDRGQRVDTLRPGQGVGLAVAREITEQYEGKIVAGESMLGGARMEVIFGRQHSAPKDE
smiles,measurement,setting,value
CCOc1ccccc1-c1cc(C(=O)N/N=C/c2ccc(OCc3ccccc3)c(OC)c2)c2ccccc2n1 [Compound 2],IC50,SF-PhoQc,57 ± 1.04 µM
same,decrease of SF-PhoQc catalyzed consumption of ATP,SF-PhoQc,82.3%
same,"times lower than untreated Sf9380, intracellular growth",S. flexneri Sf9380; 25 µmo/L,3.3 times
same,intracellular growth and spreading to adjacent cell of Sf9380 (bacteria recovered / inoculated),S. flexneri Sf9380; 25 µmo/L,0.036
O=C(Nc1ccc(C2(c3cccc(NC(=O)c4cccc5ccccc45)c3)c3ccccc3C(=O)c3ccccc32)cc1)c1ccc2ccccc2c1 [Compound 1],IC50,SF-PhoQc,12 ± 3.91 µM
same,decrease of SF-PhoQc catalyzed consumption of ATP,SF-PhoQc,100%
same,"times lower than untreated Sf9380, intracellular growth",S. flexneri Sf9380; 12.5 µmo/L,1.96 times
same,intracellular growth and spreading to adjacent cell of Sf9380 (bacteria recovered / inoculated),S. flexneri Sf9380; 12.5 µmo/L,0.061
O=C(O)c1ccc(Cl)c(-c2ccc(/C=N/NC(=O)c3ccc(Br)cc3)o2)c1 [Compound 3],IC50,SF-PhoQc,27.8 ± 10.7 µM
same,decrease of SF-PhoQc catalyzed consumption of ATP,SF-PhoQc,67.1%
same,"times lower than untreated Sf9380, intracellular growth",S. flexneri Sf9380; 100 µmo/L,2.6 times
same,intracellular growth and spreading to adjacent cell of Sf9380 (bacteria recovered / inoculated),S. flexneri Sf9380; 100 µmo/L,0.046
O=C(O)c1cc(-c2ccc(-c3ccccc3Cl)o2)nc2ccc3ccccc3c12 [Compound 4],IC50,SF-PhoQc,27.8 ± 5.59 µM
same,decrease of SF-PhoQc catalyzed consumption of ATP,SF-PhoQc,65.8%
same,effect on cell intracellular growth of Sf9380,S. flexneri Sf9380; 100 µmo/L,no obvious effect
same,intracellular growth and spreading to adjacent cell of Sf9380 (bacteria recovered / inoculated),S. flexneri Sf9380; 100 µmo/L,0.12
